Test results taken from patent publication US20210147814A1, “METHODS FOR GENERATING PLURIPOTENT STEM CELLS” (Memorial Sloan Kettering Cancer Center, priority 2017, published 2021).
Read-outs that look alike come from different tables or passages of the source.

Legend:
[1] = system: G-quadruplex (G4) DNA structure; assay: G4 DNA structure formation (G4 IHC staining, G4-antibody ChIP-seq) in fibroblasts; type: cell-based, human; conditions: for G4 level / G4 DNA structure formation: 4 hours; for G4 DNA structure formation: cells with high ROS levels
Method: G4 and 8-oxoguanosine Immunostaining. Cells were fixed in 3.7% formaldehyde for 20 minutes at room temperature and washed with phosphate buffered saline (PBS). Samples were then permeabilized with 0.1 Triton X-100 in PBS for 20 minutes and blocked for 1 hour with 3% bovine serum albumin (BSA) in PBS-T, followed by incubation with primary antibodies for 2 hours at room temperature or overnight at 4° C. Anti-DNA G-quadruplex (G4) Antibody, clone 1H6 (MABE1126, EMD Millipore, Burlington, Mass.) was used for the detection of DNA G-quadruplex and ANTI-8 HYDROXYGUANOSINE AB (N45.1) AB48508 from Abcam (Cambridge, United Kingdom). Primary antibodies were used at a 1:250 dilution and 1:50 respectively. Alexa 568-conjugated goat anti-mouse IgM (A-21124) was from Molecular Probes (Eugene, Oreg.). Secondary antibodies were used at a 1:1000 dilution. The nuclei were stained with 4′,6-diamidino-2-phenylindole (DAPI, Sigma, St. Louis, Mo.). Image quantification was performed with Image J (NIH, Bethesda, Md.), quantifying mean fluorescence intensity in the nuclear regions.
GSH and BSO Treatment, Time-Course Experiment. High ROS fibroblasts were treated by adding glutathione reduced ethyl ester (3 mM, GEE; Gold Biotechnology Inc., St. Louis, Mo.) to the media. Treated High ROS fibroblasts were then fixed and processed for staining at multiple timepoints. Low ROS fibroblasts were treated with L-Buthionine-sulfoximine (500 μM, BSO; Sigma, St. Louis, Mo.) to the media. Treated Low ROS fibroblasts were then fixed and processed for staining at multiple timepoints.
CHIP-SEQ for G4 Structures. Chromatin immunoprecipitation (ChIP) was performed according to the published protocol (see Carey, M. F., et al., Chromatin Immunoprecipitation (ChIP), COLD SPRING HARB PROTOC (CSH Press) (2009)). Anti-DNA G-quadruplex (G4) Antibody, clone 1H6 (MABE1126, EMD Millipore, Burlington, Mass.) was used for the detection of DNA G-quadruplex.

pATM [2] = assay: Immunoblot of pATM after phleomycin treatment in BSO-A-iPSC; type: cell-based; conditions: 0.5 mM from end of reprogramming day 5, ten independent clones of A-iPSC
Method: Immunoblot analysis. […] Secondary antibodies were from Cell Signaling (1:10,000).
BSO treatment. BSO-A-iPSC were generated in the presence of 500 μM of L-Buthionine-sulfoximine (BSO, Sigma, B2515) starting on the end of reprogramming day 5. The treatment was kept throughout the end of reprogramming process and after picking the colonies.
BSO-A-iPSC were generated in the presence of 500 μM of L-Buthionine-sulfoximine (BSO, Sigma B2515) starting on the end of reprogramming day 5 as previously described (see, e.g., Ji, et al. Experimental & Molecular Medicine 42:175-186 (2010)).

mouse A-iPSC = assay: DNA damage response in mouse A-iPSC treated with GSS inhibitor; type: cell-based; conditions: treatment of mouse A-iPSC; data not shown
Text: A-iPSC have excessive levels of glutathione (FIG. 3D) and elevated ROS scavenging activity (FIG. 3E) relative to Y-iPSC or ESC. While ROS levels in A-iPSC were increased by treatment with DNA damaging agents (FIG. 3E) and this might be sufficient to cause direct DNA damage and genomic instability, improper scavenging of ROS by excess glutathione would limit the ROS cellular stress signal needed to induce the DNA damage response, which would in turn reduce apoptosis and increase A-iPSC exposure to additional genotoxic stress, allowing accumulation of mutations and other genomic alterations. Upon ZSCAN10 expression, glutathione and ROS scavenging activity were normalized to levels equivalent to those seen in Y-iPSC and ESC (FIG. 3D, 3E). In addition, shRNA knockdown of GSS in reprogrammed A-iPSC (data not shown) decreased glutathione levels and ROS scavenging activity (data not shown), increased apoptosis (FIG. 3F), and recovered the DNA damage response (FIG. 3G). The DNA damage response was also recovered by treatment of A-iPSC with the GSS pharmacological inhibitor, L-Buthionine-sulfoximine (BSO) (data not shown). Conversely, overexpression of GSS in Y-iPSC (data not shown) increased glutathione and ROS scavenging activity (data not shown), decreased apoptosis (FIG. 3F), and blunted the DNA damage response (FIG. 311).

somatic cells = assay: Modification of cellular ROS levels in high-ROS / low-ROS somatic cells; type: cell-based, human; conditions: 4 hours
human AG4 fibroblasts = conditions: AG4-GSH vs AG4 control, 100,000 cells each, iPSC colonies counted at day 21
Method: (§1) For the generation of human A-iPSC, 10^5 skin fibroblasts such as young somatic cells (Y-SC) from MRCS and aged somatic cells (A-SC) from LS and AG4 donors aged 80 to 100 years were infected with retrovirus generated from the tetracistronic SFG-SV2 vector encoding for hOCT4, hSOX2, hKLF4, and hMYC in 6-well dishes with 0.5 mL of each viral supernatant (total 2 mL per well); and spun at 2500 rpm at RT for 90 min (BenchTop Centrifuge, BeckmanCoulter, Allegra-6R). The cells were contacted with 3 mM glutathione reduced ethyl ester prior to and during the early stage of reprogramming (from one day before reprogramming virus infection to 10 days post reprogramming virus infection).

pATM [3] = conditions: A-hiPSC from AG4 fibroblasts, 3 mM from one day before to 10 days post reprogramming virus infection, phleomycin 2 h, 30 μg/mL, vs untreated A-hiPSC
Method: as §1

human A-iPSC = system: human A-iPSC
Method: as §1
Copy number profiling analysis. Copy number profiling analysis was performed according to a published protocol (Baslan et al., Genome Research 25:1-11 (2015)).

GSS = conditions: A-iPSC generated with 3 mM treatment; vs untreated A-iPSC
Method: (§2) Quantitative real time-PCT (Q-PCR) analysis. The expression levels of genes (ZSCAN10, GSS) were quantified by Q-PCR with Power SYBR Green PCR mastermix (Applied Biosystems). Total RNAs (1 μg) were reverse-transcribed in a volume of 20 μL using the M-MuLV Reverse Transcriptase system (New England Biolabs), and the resulting cDNA was diluted into a total volume of 200 μL. 10 μL of this synthesized cDNA solution was used for analysis. For pluripotent genes, each reaction was performed in a 25-μL volume using the Power SYBR Green PCR mastermix (Applied Biosystems). The conditions were programmed as follows: initial denaturation at 95° C. for 10 min followed by 40 cycles of 30 sec at 95° C., 1 min at 55° C., and 1 min at 72° C.; then 1 min at 95° C., 30 s at 55° C., and 30 sec at 95° C. All of the samples were duplicated, and the PCR reaction was performed using an Mx3005 reader (Stratagene), which can detect the amount of synthesized signals during each PCR cycle. The relative amounts of the mRNAs were determined using the MxPro program (Strategene). The amount of PCR product was normalized to the percentage of the expression level of β-actin.

ZSCAN10 = conditions: A-iPSC generated with 3 mM treatment; vs untreated A-iPSC
Method: as §2

A-SC from AG4 donor = conditions: 3 mM for three days in the media
Text: Reactive oxygen species (ROS) analysis. The production of superoxide by mitochondria can be visualized in fluorescence microscopy using the MitoSOX™ Red reagent (M36008, Thermofisher scientific). MitoSOX™ Red reagent permeates live cells where it selectively targets mitochondria. It is rapidly oxidized by superoxide but not by other reactive oxygen species (ROS) and reactive nitrogen species (RNS). The oxidized product is highly fluorescent upon binding to nucleic acid. Fluorescence microscopy was used to visualize the fluorescence and imaging software (Image J) was used to quantify the staining of the different cell lines.
MitoSOX RED Staining. MitoSOX Red staining (MitoSOX™ Red mitochondrial superoxide indicator *for live-cell Imaging, M36008, ThermoFisher Scientific, Waltham, Mass.) was performed according to Molecular Probes/Thermo Scientific protocol. Briefly, the MitoSOX™ reagent stock solution (5 mM, prepared in HBSS/Ca/Mg or suitable buffer) was diluted to make a 5 μM MitoSOX™ reagent working solution. 1.0-2.0 mL of the 5 μM MitoSOX™ reagent working solution was applied to cover cells adhering to coverslip(s). Cells were incubated for 10 minutes at 37° C., protected from light. Cells were washed before imaging.

## CCCCS(=N)(=O)CCC(N)C(=O)O [BSO, L-Buthionine-sulfoximine]
[1]; 0.5 mM, low-ROS somatic cells
  G4 level: increases
[1]; low ROS fibroblasts, 500 μM, time-course (FIG. 14B)
  G4 IHC staining of fibroblasts: higher G4 IHC staining
pATM [2]
  DNA damage response (pATM immunoblot): recovery of the DNA damage response
Mouse A-iPSC
  DNA damage response: recovered
Somatic cells; 0.5 mM, low-ROS somatic cells
  cellular ROS level: increases

## N[C@@H](CCC(=O)N[C@@H](CS)C(=O)NCC(=O)O)C(=O)O [glutathione reduced ethyl ester]
Human AG4 fibroblasts
  increase of reprogramming efficiency: approximately 10 fold
pATM [3]
  DNA damage response (pATM immunoblot): protects the DNA damage response
pATM [3]; listed as glutathione
  DNA damage response (pATM immunoblot): impairs the DNA damage response
Human A-iPSC; A-hiPSC from AG4 fibroblasts, 3 mM prior to and during first 10 days of reprogramming, vs untreated A-hiPSC
  genomic stability (copy number profiling): maintains genomic stability
Human A-iPSC; human A-iPSC with glutathione treatment, 10 clones, untreated A-hiPSC 7/11
  detected rearrangements per number of clones (copy number profiling): 0/10
GSS
  GSS levels in the A-iPSC (Q-PCR): reduced
ZSCAN10
  ZSCAN10 levels in the A-iPSC (Q-PCR): elevated
[1]; 3 mM
  G4 DNA structure formation: reduces G4 DNA structure formation
[1]; 3 mM, listed as GEE
  G4 DNA structure formation: decreases
[1]; high ROS fibroblasts, 3 mM, time-course (FIG. 14A)
  G4 IHC staining of fibroblasts: lower G4 IHC staining
Somatic cells; 3 mM, high-ROS somatic cells
  cellular ROS level: decreases
A-SC from AG4 donor
  cellular ROS level (MitoSOX staining): reduces the cellular ROS level

## NCCOc1cc(C(=O)Nc2cc(OCCN)c3ccccc3n2)nc(C(=O)Nc2cc(OCCN)c3ccccc3n2)c1 [pyridostatin]
[1]; 10 μM, somatic cells
  G4 level: increases G4
